From patent US12428406B2 (PMV Pharmaceuticals, Inc., priority 2019, dated 2025)

Molecular target: T1, p53 Y220C (Homo sapiens, UniProt P04637, Y220C)
T1 construct: The recombinant protein was a truncation mutant containing only amino acids 94-312 of p53; made in house; host or cells: E. coli
Experiment: In vitro DNA binding activity assay (HTRF / TR-FRET): stabilization of p53 Y220C and increase of its DNA binding activity
Assay type: biochemical
Details: recombinant His-tagged p53 Y220C DNA binding domain (aa 94-312), biotin-labeled consensus DNA, incubated at 27° C. or 29° C. for 60 min
How it was run: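 His-tagged p53 Y220C, E. coli-expressed, binding biotin-labeled consensus DNA measured by HTRF (anti-His-APC, streptavidin-europium). Compounds from 4.5 mM DMSO stocks, 3-fold serial dilutions; incubations at room temperature 15 min, then 20 min. SC150 = concentration raising DNA binding by 50%.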

T1 sequence (P04637 94-312, change not shown): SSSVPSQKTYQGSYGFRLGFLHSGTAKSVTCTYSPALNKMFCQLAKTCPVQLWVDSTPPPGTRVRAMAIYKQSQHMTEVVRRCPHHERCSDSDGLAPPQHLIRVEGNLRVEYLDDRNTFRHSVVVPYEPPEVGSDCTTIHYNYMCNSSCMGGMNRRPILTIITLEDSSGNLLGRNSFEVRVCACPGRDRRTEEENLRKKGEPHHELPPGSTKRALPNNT

SMILES | SC150 (concentration of the compound required to increase the DNA binding activity by 50%)
CCOc1cc(S(C)(=O)=O)ccc1NCC#Cc1cc2c(N[C@H]3CC[C@H](N4CCOCC4)CC3)cccc2n1CC(F)(F)F [Compound 346A, 2-(3-((2-ethoxy-4-(methylsulfonyl)phenyl)amino)prop-1-yn-1-yl)-N-((1R,4R)-4-morpholinocyclohexyl)-1-(2,2,2-trifluoroethyl)-1H-indol-4-amine] | + (+ = 0 μM ≤ SC150 < 0.05 μM)
COc1cc(S(N)(=O)=O)ccc1NCC#Cc1cc2c(N[C@H]3CC[C@H](N4CCC(OC)CC4)CC3)cccc2n1CC(F)(F)F [Compound 354A, 3-methoxy-4-{[3-(4-{[(1R,4R)-4-(4-methoxypiperidin-1-yl)cyclohexyl]amino}-1-(2,2,2-trifluoroethyl)-1H-indol-2-yl)prop-2-yn-1-yl]amino}benzene-1-sulfonamide] | + (+ = 0 μM ≤ SC150 < 0.05 μM)
COc1cc(S(C)(=O)=O)ccc1NCC#Cc1cc2c(N[C@H]3CC[C@H](N4CCS(=O)(=O)CC4)CC3)cccc2n1CC(F)(F)F [Compound 362A, 4-[(1R,4R)-4-[(2-{3-[(4-methanesulfonyl-2-methoxyphenyl)amino]prop-1-yn-1-yl}-1-(2,2,2-trifluoroethyl)-1H-indol-4-yl)amino]cyclohexyl]-1λ^6-thiomorpholine-1,1-dione] | + (+ = 0 μM ≤ SC150 < 0.05 μM)
COc1cc(S(C)(=O)=O)ccc1NCC#Cc1cc2c(N[C@H]3CC[C@H](N4CC[S+]([O-])CC4)CC3)cccc2n1CC(F)(F)F [Compound 364A, 4-[(1R,4R)-4-[(2-{3-[(4-methanesulfonyl-2-methoxyphenyl)amino]prop-1-yn-1-yl}-1-(2,2,2-trifluoroethyl)-1H-indol-4-yl)amino]cyclohexyl]-1λ^4-thiomorpholin-1-one] | + (+ = 0 μM ≤ SC150 < 0.05 μM)
COc1cc(S(N)(=O)=O)ccc1NCC#Cc1cc2c(N[C@H]3CC[C@H](N4CCS(=O)(=O)CC4)CC3)cccc2n1CC(F)(F)F [Compound 372A, 3-methoxy-4-{[3-(4-{[(1R,4R)-4-(1,1-dioxo-1λ^6-thiomorpholin-4-yl)cyclohexyl]amino}-1-(2,2,2-trifluoroethyl)-1H-indol-2-yl)prop-2-yn-1-yl]amino}benzene-1-sulfonamide] | + (+ = 0 μM ≤ SC150 < 0.05 μM)
COc1cc(S(C)(=O)=O)ccc1NCC#Cc1cc2c(N[C@H]3CC[C@@H](N4CCC5(CC4)COC5)CC3)cccc2n1CC(F)(F)F [Compound 374A, 2-{3-[(4-methane-sulfonyl-2-methoxy-phenyl)amino]prop-1-yn-1-yl}-N-[(1S,4S)-4-{2-oxa-7-azaspiro[3.5]nonan-7-yl}cyclohexyl]-1-(2,2,2-trifluoroethyl)-1H-indol-4-amine] | + (+ = 0 μM ≤ SC150 < 0.05 μM)
CNC(=O)c1ccc(NCC#Cc2cc3c(N[C@H]4CC[C@H](N5CCC6(CC5)COC6)CC4)cccc3n2CC(F)(F)F)c(OC)c1 [Compound 375A, 3-methoxy-N-methyl-4-{[3-(4-{[(1R,4R)-4-{2-oxa-7-azaspiro[3.5]nonan-7-yl}cyclohexyl]amino}-1-(2,2,2-trifluoroethyl)-1H-indol-2-yl)prop-2-yn-1-yl]amino}benzamide] | + (+ = 0 μM ≤ SC150 < 0.05 μM)
CNC(=O)c1ccc(NCC#Cc2cc3c(N[C@H]4CC[C@@H](N5CCC6(CC5)COC6)CC4)cccc3n2CC(F)(F)F)c(OC)c1 [Compound 376A, 3-methoxy-N-methyl-4-{[3-(4-{[(1S,4S)-4-{2-oxa-7-azaspiro[3.5]nonan-7-yl}cyclohexyl]amino}-1-(2,2,2-trifluoroethyl)-1H-indol-2-yl)prop-2-yn-1-yl]amino}benzamide] | + (+ = 0 μM ≤ SC150 < 0.05 μM)
COc1cc(S(C)(=O)=O)ccc1NCC#Cc1cc2c(N[C@H]3CC[C@H](N4CCC5(CCO5)CC4)CC3)cccc2n1CC(F)(F)F [Compound 383A, 2-{3-[(4-methane-sulfonyl-2-methoxy-phenyl)amino]prop-1-yn-1-yl}-N-[(1R,4R)-4-{1-oxa-7-azaspiro[3.5]nonan-7-yl}cyclohexyl]-1-(2,2,2-trifluoroethyl)-1H-indol-4-amine] | + (+ = 0 μM ≤ SC150 < 0.05 μM)

Further lines, results first:

SC150 (concentration of the compound required to increase the DNA binding activity by 50%) | SMILES
+ (+ = 0 μM ≤ SC150 < 0.05 μM) | NS(=O)(=O)c1ccc(NCC#Cc2cc3c(N[C@H]4CC[C@H](N5CCOCC5)CC4)cccc3n2CC(F)(F)F)c(OCF)c1 [Compound 344A, 3-(fluoromethoxy)-4-{[3-(4-{[(1R,4R)-4-(morpholin-4-yl)cyclohexyl]amino}-1-(2,2,2-trifluoroethyl)-1H-indol-2-yl)prop-2-yn-1-yl]amino}benzene-1-sulfonamide]
+ (+ = 0 μM ≤ SC150 < 0.05 μM) | COc1cc(S(C)(=O)=O)ccc1NCC#Cc1cc2c(N[C@H]3CC[C@H](N4CCCC(OC)C4)CC3)cccc2n1CC(F)(F)F (stereo partly drawn) [Compound 348A, 2-{3-[(4-methane-sulfonyl-2-methoxy-phenyl)amino]prop-1-yn-1-yl}-N-[(1R,4R)-4-(3-methoxypiperidin-1-yl)cyclohexyl]-1-(2,2,2-trifluoroethyl)-1H-indol-4-amine]
+ (+ = 0 μM ≤ SC150 < 0.05 μM) | COc1cc(S(C)(=O)=O)ccc1NCC#Cc1cc2c(N[C@H]3CC[C@H](N4CCC(OC)CC4)CC3)cccc2n1CC(F)(F)F [Compound 350A, 2-{3-[(4-methane-sulfonyl-2-methoxy-phenyl)amino]prop-1-yn-1-yl}-N-[(1R,4R)-4-(4-methoxypiperidin-1-yl)cyclohexyl]-1-(2,2,2-trifluoroethyl)-1H-indol-4-amine]
+ (+ = 0 μM ≤ SC150 < 0.05 μM) | CNC(=O)c1ccc(NCC#Cc2cc3c(N[C@H]4CC[C@H](N5CCC(OC)CC5)CC4)cccc3n2CC(F)(F)F)c(OC)c1 [Compound 352A, 3-methoxy-N-methyl-4-{[3-(4-{[(1R,4R)-4-(4-methoxypiperidin-1-yl)cyclohexyl]amino}-1-(2,2,2-trifluoroethyl)-1H-indol-2-yl)prop-2-yn-1-yl]amino}benzamide]
+ (+ = 0 μM ≤ SC150 < 0.05 μM) | CNC(=O)c1ccc(NCC#Cc2cc3c(N[C@H]4CC[C@H](N5CCCC(OC)C5)CC4)cccc3n2CC(F)(F)F)c(OC)c1 (stereo partly drawn) [Compound 356A, 3-methoxy-N-methyl-4-{[3-(4-{[(1R,4R)-4-(3-methoxypiperidin-1-yl)cyclohexyl]amino}-1-(2,2,2-trifluoroethyl)-1H-indol-2-yl)prop-2-yn-1-yl]amino} benzamide]
+ (+ = 0 μM ≤ SC150 < 0.05 μM) | COc1cc(S(N)(=O)=O)ccc1NCC#Cc1cc2c(N[C@H]3CC[C@H](N4CCCC(OC)C4)CC3)cccc2n1CC(F)(F)F (stereo partly drawn) [Compound 358A, 3-methoxy-4-{[3-(4-{[(1R,4R)-4-(3-methoxypiperidin-1-yl)cyclohexyl]amino}-1-(2,2,2-trifluoroethyl)-1H-indol-2-yl)prop-2-yn-1-yl]amino}benzene-1-sulfonamide]
+ (+ = 0 μM ≤ SC150 < 0.05 μM) | CNC(=O)c1ccc(NCC#Cc2cc3c(N[C@H]4CC[C@H](N5CC[S+]([O-])CC5)CC4)cccc3n2CC(F)(F)F)c(OC)c1 [Compound 369A, 3-methoxy-N-methyl-4-{[3-(4-{[(1R,4R)-4-(1-oxo-1λ^4-thiomorpholin-4-yl)cyclohexyl]amino}-1-(2,2,2-trifluoroethyl)-1H-indol-2-yl)prop-2-yn-1-yl]amino}benzamide]
+ (+ = 0 μM ≤ SC150 < 0.05 μM) | COc1cc(S(N)(=O)=O)ccc1NCC#Cc1cc2c(N[C@H]3CC[C@H](N4CC[S+]([O-])CC4)CC3)cccc2n1CC(F)(F)F [Compound 370A, 3-methoxy-4-{[3-(4-{[(1R,4R)-4-(1-oxo-1λ^4-thiomorpholin-4-yl)cyclohexyl]amino}-1-(2,2,2-trifluoro-ethyl)-1H-indol-2-yl)prop-2-yn-1-yl]amino} benzene-1-sulfonamide]
+ (+ = 0 μM ≤ SC150 < 0.05 μM) | COc1cc(S(N)(=O)=O)ccc1NCC#Cc1cc2c(N[C@H]3CC[C@H](N4CCC5(CC4)COC5)CC3)cccc2n1CC(F)(F)F [Compound 377A, 3-methoxy-4-{[3-(4-{[(1R,4R)-4-{2-oxa-7-azaspiro[3.5]nonan-7-yl}cyclohexyl]amino}-1-(2,2,2-trifluoroethyl)-1H-indol-2-yl)prop-2-yn-1-yl]amino}benzene-1-sulfonamide]
+ (+ = 0 μM ≤ SC150 < 0.05 μM) | N#CCOc1cc(S(N)(=O)=O)ccc1NCC#Cc1cc2c(N[C@H]3CC[C@H](N4CCC5(CC4)COC5)CC3)cccc2n1CC(F)(F)F [Compound 379A, 3-(cyanomethoxy)-4-{[3-(4-{[(1R,4R)-4-{2-oxa-7-azaspiro[3.5]nonan-7-yl}cyclohexyl]amino}-1-(2,2,2-trifluoroethyl)-1H-indol-2-yl)prop-2-yn-1-yl]amino}benzene-1-sulfonamide]
+ (+ = 0 μM ≤ SC150 < 0.05 μM) | NS(=O)(=O)c1ccc(NCC#Cc2cc3c(N[C@H]4CC[C@H](N5CCC6(CC5)COC6)CC4)cccc3n2CC(F)(F)F)c(OCF)c1 [Compound 381A, 3-(fluoromethoxy)-4-{[3-(4-{[(1R,4R)-4-{2-oxa-7-azaspiro[3.5]nonan-7-yl}cyclohexyl]amino}-1-(2,2,2-trifluoroethyl)-1H-indol-2-yl)prop-2-yn-1-yl]amino}benzene-1-sulfonamide]
